The source of these data is patent US11690850B2, “Inhibitors of receptor interacting protein kinase I for the treatment of disease” (Board of Regents, The University of Texas System, priority 2019, dated 2023).

One test has as its target RIPK1 (Homo sapiens (Human), UniProt Q13546). Description: ADP-Glo Kinase Assay. Conditions: 5 nM RIPK1 protein, 50 μM ATP, 6 hr reaction, average value across multiple runs. The test is classed as biochemical. The procedure, abridged: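 ADP formed from ATP is measured by ADP-Glo luminescence with 5 nM RIPK1, preincubated 10 min with compound, then 50 μM ATP for 6 h. Buffer is 50 mM HEPES pH 7.5, 50 mM NaCl, 30 mM MgCl2, 1 mM DTT, 0.05% BSA, 0.02% CHAPS. IC50 comes from a four-parameter fit, averaged over runs.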
For orientation: ADP-Glo first removes unused ATP, then detects ADP through luciferase.

Test [1] deals with human monocytic cell line U937. Description: Human U937 Cellular Necroptosis Assay. Conditions: U-937; U937 cells stimulated with 25 ng/mL human TNFalpha and 25 μM z-VAD-FMK, 22 hr, viability by Cell Titer-Glo 2.0; average value across multiple runs; read-out: hU937 IC50. It counts as cell-based. On the procedure: Human U937 Cellular Necroptosis Assay
The human monocytic cell line U937 (CRL-1593.2) was purchased from ATCC. The cells were routinely maintained in RPMI-1640 Medium (Gibco, Catalog #11875-093) supplemented with 10% heat inactivated fetal bovine serum (Gibco, Catalog #16140-071), 100 units/mL penicillin and 100 μg/mL streptomycin (Gibco, Catalog #15140-122), in a humidified incubator (37° C., 5% CO2). For the assay, cells were resuspended in RPMI-1640 phenol red free Media (Gibco, Catalog #11835-030) supplemented with 10% fetal bovine serum (Sigma, Catalog #F2442), 100 units/mL penicillin and 100 ug/mL streptomycin. Cells were stimulated with 25 ng/mL human TNFalpha (Cell Sciences, Catalog #CSI15659B) and 25 μM z-VAD-FMK (R&D Systems, Catalog #FMK001) followed by seeding 5000 cells per well in a volume of 40 μL to a white, CulturPlate-384 (Perkin Elmer, Catalog #6007680). Stock solutions of the test compounds were prepared in 100% DMSO (Sigma, Catalog #D2650) and serially diluted 1:3 using 100% DMSO. Compounds were additionally diluted 1:40 in assay medium, and 10 μL/well was transferred to the plate. Following the compound addition the plate was incubated at 37° C. and 5% CO2 for 22 hr. After 22 hr, viability was assessed with the addition of 20 μL of Cell Titer-Glo 2.0 (Promega, Catalog #G9243). The tissue culture plate was shaken on an orbital shaker at 300 RPM for 15 minutes at room temperature in the dark. Luminescence was measured using a PerkinElmer Envision™ plate reader. IC50 values were calculated using a four-parameter logistic curve fit using Genedata Screener software. Results are shown below in Table 5, where the average value across multiple runs is given.

RIPK1, sequence (Q13546 1-327): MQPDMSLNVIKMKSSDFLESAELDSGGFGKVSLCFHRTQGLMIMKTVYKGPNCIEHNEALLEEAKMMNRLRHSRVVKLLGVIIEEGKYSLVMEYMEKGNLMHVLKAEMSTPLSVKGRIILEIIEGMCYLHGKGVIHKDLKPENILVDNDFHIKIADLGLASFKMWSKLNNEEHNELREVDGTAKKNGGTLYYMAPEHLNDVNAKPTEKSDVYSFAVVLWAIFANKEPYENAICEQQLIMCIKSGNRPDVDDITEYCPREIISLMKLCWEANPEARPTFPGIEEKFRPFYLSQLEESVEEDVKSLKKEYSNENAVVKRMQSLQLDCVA

Regarding `Cc1cc(=O)c(C(=O)NC2CCc3ccccc3N(C)C2=O)nn1-c1ccccc1` (stereo not shown) [Example 41, 6-methyl-N-(1-methyl-2-oxo-2,3,4,5-tetrahydro-1H-benzo[b]azepin-3-yl)-4-oxo-1-phenyl-1,4-dihydropyridazine-3-carboxamide], the IC50 – broadly, the concentration needed to halve the response being measured – turned out to be 35 nM at RIPK1 and 39 nM in test [1].
Taken in the same sequence, the figures for `Cc1c(C#N)c(=O)c(C(=O)NC2CCc3ccccc3N(C)C2=O)nn1-c1ccccc1` (stereo not shown) [Example 47, 5-Cyano-6-methyl-N-(1-methyl-2-oxo-2,3,4,5-tetrahydro-1H-benzo[b]azepin-3-yl)-4-oxo-1-phenyl-1,4-dihydropyridazine-3-carboxamide] were 72 nM and 86 nM.
Taken in the same sequence, the figures for `Cc1cc(=O)c(C(=O)NC2CCc3ccccc3NC2=O)nn1-c1ccc(Cl)cc1` (stereo not shown) [Example 66, 1-(4-chlorophenyl)-6-methyl-4-oxo-N-(2-oxo-2,3,4,5-tetrahydro-1H-benzo[b]azepin-3-yl)-1,4-dihydro-pyridazine-3-carboxamide] were 30.2 nM and 80.4 nM.
Taken in the same sequence, the figures for `Cc1cc(=O)c(C(=O)NC2CCc3cc(F)cc(F)c3NC2)nn1-c1ccccc1` (stereo not shown) [Example 69, N-(7,9-difluoro-2,3,4,5-tetrahydro-1H-benzo[b]azepin-3-yl)-6-methyl-4-oxo-1-phenyl-1,4-dihydropyridazine-3-carboxamide] were 8500 nM and 10000 nM.
Consider `Cc1c(Br)c(=O)c(C(=O)NC2CCc3ccccc3NC2=O)nn1-c1ccccc1` (stereo not shown) [Example 42, 5-Bromo-6-methyl-4-oxo-N-(2-oxo-2,3,4,5-tetrahydro-1H-benzo[b]azepin-3-yl)-1-phenyl-1,4-dihydropyridazine-3-carboxamide], for which the figures for the IC50 (at RIPK1; in test [1]) were 36 nM and 141 nM, respectively.
On the same counts, the results for `Cc1cc(=O)c(C(=O)N[C@H]2COc3cccnc3N(C)C2=O)nn1-c1ccccc1` [Example 50, (S)-6-methyl-N-(5-methyl-4-oxo-2,3,4,5-tetrahydropyrido[3,2-b][1,4]oxazepin-3-yl)-4-oxo-1-phenyl-1,4-dihydropyridazine-3-carboxamide] are 28 nM and 33 nM.
On the same counts, the results for `Cc1cc(=O)c(C(=O)NC2CCc3ccccc3NC2=O)nn1-c1cccc(Cl)c1` (stereo not shown) [Example 68, 1-(3-chlorophenyl)-6-methyl-4-oxo-N-(2-oxo-2,3,4,5-tetrahydro-1H-benzo[b]-azepin-3-yl)-1,4-dihydropyridazine-3-carboxamide] are 57.8 nM and 142 nM.
On the same counts, the results for `Cc1cc(=O)c(C(=O)NC2CCc3ccccc3NC2=O)nn1-c1cccc(F)c1` (stereo not shown) [Example 54, 1-(3-fluorophenyl)-6-methyl-4-oxo-N-(2-oxo-2,3,4,5-tetrahydro-1H-benzo[b]-azepin-3-yl)-1,4-dihydropyridazine-3-carboxamide] are 27 nM and 53 nM.
For the compound `Cc1cc(=O)c(C(=O)NC2CCn3nccc3N(C)C2=O)nn1-c1ccccc1` (stereo not drawn) [Example 72, 6-methyl-N-(4-methyl-5-oxo-5,6,7,8-tetrahydro-4H-pyrazolo[1,5-a][1,3]diazepin-6-yl)-4-oxo-l-phenyl-1,4-dihydropyridazine-3-carboxamide], the IC50 was determined as 90.6 nM at RIPK1 and 222 nM in test [1].
On the same counts, the results for `Cc1cc(=O)c(C(=O)Nc2cc(Cl)c3c(c2)NC(=O)C3)nn1-c1ccccc1` [Example 32, N-(4-chloro-2-oxoindolin-6-yl)-6-methyl-4-oxo-1-phenyl-1,4-dihydropyridazine-3-carboxamide] are 2250 nM and 5820 nM.
Taken in the same sequence, the figures for `Cc1c(Br)c(=O)c(C(=O)NC2CCc3cc(Br)ccc3NC2=O)nn1-c1ccccc1` (stereo not shown) [Example 43, 5-Bromo-N-(7-bromo-2-oxo-2,3,4,5-tetrahydro-1H-benzo[b]azepin-3-yl)-6-methyl-4-oxo-1-phenyl-1,4-dihydropyridazine-3-carboxamide] were 23 nM and 48 nM.
Taken in the same sequence, the figures for `Cc1cc(=O)c(C(=O)N[C@H]2COc3cc(C#N)ccc3N(C)C2=O)nn1-c1ccc(C#N)cc1` [Example 60, (S)-N-(8-cyano-5-methyl-4-oxo-2,3,4,5-tetrahydrobenzo[b][1,4]oxazepin-3-yl)-1-(4-cyanophenyl)-6-methyl-4-oxo-1,4-dihydropyridazine-3-carboxamide] were 84.9 nM and 424 nM.
Take `Cc1cc(=O)c(C(=O)Nc2cccc(Cl)c2F)nn1-c1ccccc1F` [Example 8, N-(3-chloro-2-fluorophenyl)-1-(2-fluorophenyl)-6-methyl-4-oxo-1,4-dihydropyridazine-3-carboxamide]: the figures for the IC50 (on RIPK1; in test [1]) were 53 nM and 172 nM, respectively.
On the same counts, the results for `Cc1cc(=O)c(C(=O)NC2CCc3ccccc3NC2=O)nn1-c1ccc(C#N)cc1` (stereo not shown) [Example 56, 1-(4-cyanophenyl)-6-methyl-4-oxo-N-(2-oxo-2,3,4,5-tetrahydro-1H-benzo[b]-azepin-3-yl)-1,4-dihydropyridazine-3-carboxamide] are 85 nM and 292 nM.
On the same counts, the results for `Cc1ccc(-n2nc(C(=O)N[C@H]3COc4cc(C#N)ccc4N(C)C3=O)c(=O)cc2C)cc1F` [Example 62, (S)-N-(8-cyano-5-methyl-4-oxo-2,3,4,5-tetrahydrobenzo[b][1,4]oxazepin-3-yl)-1-(3-fluoro-4-methylphenyl)-6-methyl-4-oxo-1,4-dihydropyridazine-3-carboxamide] are 48 nM and 67 nM.
On the same counts, the results for `COc1ccc(-n2nc(C(=O)NC3CCc4ccccc4NC3=O)c(=O)cc2C)cc1` (stereo not shown) [Example 65, 1-(4-methoxyphenyl)-6-methyl-4-oxo-N-(2-oxo-2,3,4,5-tetrahydro-1H-benzo[b]azepin-3-yl)-1,4-dihydropyridazine-3-carboxamide] are 47.6 nM and 124 nM.
Regarding `Cc1cc(=O)c(C(=O)NC2CCc3ccccc3NC2=O)nn1-c1ccccc1F` (stereo not shown) [Example 59, 1-(2-fluorophenyl)-6-methyl-4-oxo-N-(2-oxo-2,3,4,5-tetrahydro-1H-benzo[b]-azepin-3-yl)-1,4-dihydropyridazine-3-carboxamide], the IC50 at RIPK1 was found to be 33.5 nM; in test [1], 74 nM.
On the same counts, the results for `Cc1cccc(C2CC2)c1NC(=O)c1nn(-c2ccccc2)c(C)cc1=O` [Example 26, N-(2-cyclopropyl-6-methylphenyl)-6-methyl-4-oxo-1-phenyl-1,4-dihydropyridazine-3-carboxamide] are 668 nM and 3170 nM.
On the same counts, the results for `Cc1cc(=O)c(C(=O)Nc2c3ccccc3nc3ccccc23)nn1-c1ccccc1` [Example 33, N-(acridin-9-yl)-6-methyl-4-oxo-1-phenyl-1,4-dihydropyridazine-3-carboxamide] are 2190 nM and 8490 nM.
Taken in the same sequence, the figures for `Cc1cc(=O)c(C(=O)NC2CCc3cc(F)cc(F)c3NC2=O)nn1-c1ccccc1` (stereo not shown) [Example 48, N-(7,9-difluoro-2-oxo-2,3,4,5-tetrahydro-1H-benzo[b]azepin-3-yl)-6-methyl-4-oxo-1-phenyl-1,4-dihydropyridazine-3-carboxamide] were 51 nM and 70 nM.
